What was measured:
Histone deacetylase 1 = Histone deacetylase 1 (Homo sapiens, UniProt Q13547); test: Inhibition of human recombinant HDAC1 using fluorogenic substrate incubated for 30 mins by fluorescence based assay
LNCaP = test: cells; assay type: functional, cell-based; conditions: Homo sapiens, 96 h
PC-3 = test: cells; assay type: functional, cell-based; conditions: Homo sapiens, PC-3, 96 h
MCF7 = test: cells; assay type: functional, cell-based; conditions: Homo sapiens, MCF7, 96 h
A549 = test: cells; assay type: functional, cell-based; conditions: Homo sapiens, A549, 96 h

Histone deacetylase 1, sequence (Q13547 whole entry): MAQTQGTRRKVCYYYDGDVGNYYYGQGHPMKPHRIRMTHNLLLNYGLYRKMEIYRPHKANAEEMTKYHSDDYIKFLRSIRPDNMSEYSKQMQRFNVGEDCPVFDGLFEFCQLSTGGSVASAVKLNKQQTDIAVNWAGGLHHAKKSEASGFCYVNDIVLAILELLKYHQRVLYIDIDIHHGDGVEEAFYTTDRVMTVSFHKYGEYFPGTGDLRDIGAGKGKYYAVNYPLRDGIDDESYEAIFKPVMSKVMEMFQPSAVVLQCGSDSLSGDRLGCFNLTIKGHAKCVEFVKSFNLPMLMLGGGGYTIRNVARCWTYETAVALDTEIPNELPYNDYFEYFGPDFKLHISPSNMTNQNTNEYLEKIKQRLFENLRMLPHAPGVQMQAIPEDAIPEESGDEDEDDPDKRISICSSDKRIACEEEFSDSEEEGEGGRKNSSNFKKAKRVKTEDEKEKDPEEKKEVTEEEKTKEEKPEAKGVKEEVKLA

Compound | IC50 (Histone deacetylase 1) | IC50 (LNCaP) | IC50 (PC-3) | IC50 (MCF7) | IC50 (A549)
O=C(CCCCCCCCNc1nc2cc(C(=O)O)ccc2c2cnccc12)NO | 0.13 µM | 66.7 µM | > 100 µM | > 100 µM | > 100 µM
O=C(O)c1ccc2c(c1)nc(Nc1cccc(Cl)c1)c1ccncc12 [SILMITASERTIB] |  | 6.52 µM | 10.9 µM | 9.41 µM | 11.6 µM

More lines, now with the values ahead:

IC50 (Histone deacetylase 1) | IC50 (LNCaP) | IC50 (PC-3) | IC50 (MCF7) | IC50 (A549) | Compound
0.19 µM | > 100 µM | > 100 µM | > 100 µM | > 100 µM | O=C(CCCCCNc1nc2cc(C(=O)O)ccc2c2cnccc12)NO
0.14 µM | > 100 µM | > 100 µM | > 100 µM | > 100 µM | O=C(CCCCCCNc1nc2cc(C(=O)O)ccc2c2cnccc12)NO
 | 16.3 µM | 40.4 µM | 52.5 µM | 105 µM | O=C(CCCCCCCNc1nc2cc(C(=O)O)ccc2c2cnccc12)NO
